Measured values taken from patent US20160213680A1, “COMPOSITIONS AND METHODS USING FLUMAZENIL WITH OPIOID ANALGESICS FOR TREATING PAIN AND/OR ADDICTION, AND WITH DIVERSION AND/OR OVERDOSE MITIGATION” (SOTERIAN PHARMACEUTICALS, LLC, priority 2015, published 2016).
“And” between values parts separate entries of the source, which are not always exact repeats. Equal entries are not always repeated. “Also recorded” adds a separate entry of the source.

Legend:
[1] = in vivo, cited from earlier work
[2] = Tablet pilot studies of flumazenil tolerability; assay type: in vivo, human; conditions: tablet formulations, compared with IV flumazenil history
Description: Note, several historical physiological ideas about IV flumazenil may be much different compared to the formulations of flumazenil used in the various pharmaceutical dosage units. […] When patients are currently prescribed opiates, such patients are instructed to avoid benzodiazepines and the pharmaceutical dosage units disclosed herein may make physicians more confident that such patients will remain compliant with that instruction.

[3] = system: patients who had been taking methadone; experiment: Example 2: conversion of methadone patients to the sublingual tablet (withdrawal, VAS pain); assay type: in vivo, human; conditions: patients withdrawing from methadone
Protocol: […]. These patients took an average of 9 days to convert before methadone withdrawal was completely eliminated.
Patients who had been taking 50 mg to 140 mg per day of methadone were first titrated down with Ultram (e.g., via 2 to 3 tablets of Ultram 50 mg administered every 6 hours) for four days. Following this titration period, the patients were given injections containing 0.3 mg buprenorphine and 60 mg torodol to see if further time was needed before the sublingual tablets comprising buprenorphine and flumazenil could be started without risk of precipitating withdrawal. […]. Stomach tightness, nausea, and restless legs were the most common complaints from these patients.

[4] = system: sedation associated with benzodiazepines (midazolam); assay type: in vivo, human
Protocol: Subjects were pretreated with about 10 mg flumazenil orally. After 30 minutes midazolam (a benzodiazepine) 0.3 mg was administered and repeated every 30 minutes until sedative effects were noticed by the subject or reported by the investigator. Oral flumazenil of about 10 mg was able to block midazolam for an average of 150 minutes.
This example study was repeated with about 30 mg flumazenil orally (2 subjects) and sublingually (3 subjects). Allowing the sublingual flumazenil treatment option was thought to avoid first pass hepatic metabolism and potentially increase Cmax (maximum [or peak] serum concentration), shorten Tmax (time at which the Cmax is observed) and is expected to increase the area under the curve for flumazenil in the serum. In this dose range study subjects were again pretreated with about 30 mg flumazenil orally or sublingually. After 30 minutes midazolam (Versed) 0.3 mg was administered and repeated every 30 minutes until sedative effects were noticed by the subject or reported by the investigator.

Which results are given for `CCOC(=O)c1ncn2c1CN(C)C(=O)c1cc(F)ccc1-2` [flumazenil, ethyl 8-fluoro-5-methyl-6-oxo-5,6-dihydro-4H-benzo[f]imidazo[1,5-a][1,4]diazepine-3-carboxylate]?
oral and/or gastrointestinal bioavailability ([1]; po): very low; elimination half-life [1]: 1.4 h; anxiety, panic attacks, dysphoria, disorientation [2]: does not cause anxiety nor panic attacks; also recorded: no dysphoria nor disorientation; effect of flumazenil on the pain and withdrawal relieving effect of buprenorphine [3]: noticeably enhanced; duration of blockade from Versed ([4]; about 3 mg IV flumazenil): 60 min; duration of midazolam blockade / protection from sedation (average) ([4]; about 10 mg flumazenil orally, midazolam 0.3 mg every 30 minutes): 150 min; sedation at the 330 minute interval ([4]; about 30 mg flumazenil orally or sublingually, all subjects): measurable (but reduced) sedation; duration of midazolam blockade, individual subjects ([4]; about 30 mg flumazenil orally, the 2 subjects): 240 min and 270 min; time for flumazenil to clear the serum (average) ([4]; human, in vivo, po): about 3 hours

For `Cc1ncc2n1-c1ccc(Cl)cc1C(c1ccccc1F)=NC2` [midazolam], which “time to maximum sedation after IV midazolam dosing” value ([4]; midazolam 0.3 mg IV) is on record?
Its value is 5 min.
